# Results: patent US20170218449A1, “ANALYTICAL METHODS AND ARRAYS FOR USE IN THE SAME” (SENZAGEN AB, priority 2010, published 2017)
# Test system: MUTZ-3 cells
# Assay: cytotoxicity by Propidium Iodide, relative viability (Rv90)
# Settings: concentration yielding 90% relative viability, PI staining
# Experimental: A panel of chemicals consisting of 20 sensitizers and 20 non-sensitizers were used for cell stimulations. […] All chemicals were from Sigma-Aldrich, St. Louis, Mo., USA. Compounds were dissolved in either Dimethyl sulfoxide (DMSO) or distilled water. Prior to stimulations, the cytotoxicity of all compounds were monitored, using Propidium Iodide (PI) (BD Biosciences, San Diego, Calif.) using protocol provided by the manufacturer. The relative viability of stimulated cells was calculated as
# For toxic compounds, the concentration yielding 90% relative viability (Rv90) was used. For untoxic compounds, a concentration of 500 μM was used when possible. For non-toxic compounds that were insoluble at 500 μM in medium, the highest soluble concentration was used. For compounds dissolved in DMSO, the in-well concentration was 0.1% DMSO.
row,Structure (SMILES),Rv90
1,C=CC(=O)OCCO [2-Hydroxyethyl acrylate],100 µM
2,CCCCCCCCCCCCOS(=O)(=O)[O-].[Na+] [Sodium dodecyl sulphate],200 µM
3,O=CC=O [Glyoxal],300 µM
4,"O=[N+]([O-])c1ccc(Cl)c([N+](=O)[O-])c1 [2,4-Dinitrochlorobenzene]",4 µM
5,Nc1ccccc1O [2-Aminophenol],100 µM
6,Nc1ccc(N)cc1 [p-Phenylendiamine],75 µM

# Same assay, conditions: human
row,Structure (SMILES),Rv90
1,C=CCc1ccc(O)c(OC)c1 [Eugenol],300 µM
2,CC=Cc1ccc(O)c(OC)c1 [Isoeugenol],300 µM
3,C=O [Formaldehyde],80 µM
4,O=CC=Cc1ccccc1 [Cinnamaldehyde],120 µM

# Test system: CD86
# Assay: CD86 cell surface expression by flow cytometry after chemical stimulation
# Assay type: cell-based, human
# Settings: 24 h stimulation, frequency of CD86-positive cells, paired Student's t test
# Experimental: Cell surface expression levels of CD86 were monitored after stimulation with chemicals for 24 h. FIG. 2A). Chemical-induced upregulation of CD86, in terms of changes in frequency of positive cells, were determined by flow cytometry, as exemplified by the comparison of 2-aminophenol-stimulated cells (right dotplot) and unstimulated controls (left dotplot). Results are shown from one representative experiment out of three. Gates were set to exclude debris and dead cells, and quadrants were established by comparing with relevant isotype controls. FIG. 2B) Compilation of frequencies of CD86-positive cells after 24 h of stimulation. Statistical analysis was performed using paired Student's t test. *p<0.05, # p<0.01. NA, not analysed.
# CD86 is the most extensively studied biomarker for sensitization to date, in cell-systems such as monocyte derived dendritic cells (MoDCs) or dendritic cell-like human cell lines and their progenitors, such as THP-1, U-937 and KG-1. Thus, as a reference, cell surface expression of CD86 was measured with flow cytometry after 24h stimulation with 20 sensitizers and 20 non-sensitizers, as well as with vehicle controls (Table 1). […]. […] Consequently, CD86 cannot classify skin sensitizers, using a cell based system such as MUTZ-3.
# The human myeloid leukaemia-derived cell line MUTZ-3 (DSMZ, Braunschweig, Germany) was maintained in a-MEM (Thermo Scientific Hyclone, Logan, Utah) supplemented with 20% (volume/volume) fetal calf serum (Invitrogen, Carlsbad, Calif.) and 40 ng/ml rhGM-CSF (Bayer HealthCare Pharmaceuticals, Seattle, Wash.), as described. Prior to each experiment, the cells were immunophenotyped using flow cytometry as a quality control. Cells were seeded in 6-well plates at 200.000 cells/ml. Stock solutions of each compound was prepared in either DMSO or distilled water, and were subsequently diluted so the in-well concentrations corresponded to the Rv90 value, and in-well concentrations of DMSO were 0.1%. Cells were incubated for 24h at 37° C. and 5% CO2. Thereafter, cells were harvested and analysed with flow cytometry. In parallel, harvested cells were lysed in TRIzol reagent (Invitrogen) and stored at −20° C. until RNA extraction. Stimulations with chemicals were performed in three individual experiments, so that triplicates samples were obtained.
# All cell surface staining and washing steps was performed in PBS containing 1% BSA (w/v). Cells were incubated with specific mouse mAbs for 15 min at 4° C. The following mAbs were used for flow cytometry: FITC-conjugated CD1a (DakoCytomation, Glostrup, Denmark), CD34, CD86, and HLA-DR (BD Biosciences), PE-conjugated CD14 (DakoCytomation), CD54 and CD80 (BD Biosciences). Mouse IgG1, conjugated to FITC or PE were used as isotype controls and PI was used to assess cell viability (BD Biosciences). FACSDiva software was used for data acquisition with FACSCanto II instrument (BD Bioscience). 10,000 events were acquired and gates were set based on light scatter properties to exclude debris and nonviable cells. Further data analysis was performed using FCS Express V3 (De Novo Software, Los Angeles, Calif.).
row,Structure (SMILES),CD86 cell surface expression
1,Sc1nc2ccccc2s1 [2-Mercaptobenzothiazole],significantly up-regulated
2,C=CC(=O)OCCO [2-Hydroxyethyl acrylate],significantly up-regulated
3,"O=[N+]([O-])c1ccc(Cl)c([N+](=O)[O-])c1 [2,4-Dinitrochlorobenzene]",significantly up-regulated
4,"Nc1ccc(N)c([N+](=O)[O-])c1 [2-nitro-1,4-Phenylendiamine]",significantly up-regulated
5,Nc1ccccc1O [2-Aminophenol],significantly up-regulated
6,Oc1cccc(O)c1 [Resorcinol],significantly up-regulated
7,Nc1ccc(N)cc1 [p-Phenylendiamine],significantly up-regulated
8,O=CC=Cc1ccccc1 [Cinnamaldehyde],significantly up-regulated

# Test system: MUTZ-3 cells
# Assay: transcriptional profiling (Affymetrix Human Gene 1.0 ST arrays) with PCA of chemically stimulated cells
# Assay type: cell-based
# Settings: not given
Structure (SMILES),"PCA grouping, 1010 transcripts (sensitizing vs. non-sensitizing ANOVA), FIG. 3B","PCA grouping, 1137 genes (comparing the different stimulations), FIG. 3D"
Oc1ccccc1 [Phenol],tend to group with the sensitizers,
[K+].[K+].[O]=[Cr](=[O])([O-])[O][Cr](=[O])(=[O])[O-] [Potassium dichromate],,discrete profile
Nc1ccccc1O [2-Aminophenol],,"replicates that group together, separate from the negative group"

# Same assay, conditions: 24 h stimulation, one or more replicate
row,Structure (SMILES),"PCA grouping, 1010 transcripts (sensitizing vs. non-sensitizing ANOVA), FIG. 3B"
1,CCCCCCC(C=O)=Cc1ccccc1 [Hexylcinnamic aldehyde],group together with the control group
2,C=CCc1ccc(O)c(OC)c1 [Eugenol],group together with the control group
3,CC=Cc1ccc(O)c(OC)c1 [Isoeugenol],group together with the control group
4,CC1(C)S[C@@H]2[C@H](NC(=O)Cc3ccccc3)C(=O)N2[C@H]1C(=O)O [Penicillin G],group together with the control group
5,O=CC=O [Glyoxal],group together with the control group
6,NCCN [Ethylendiamine],group together with the control group
7,CCCCCCCC/C=C\CCCCCCCC(=O)OCCOCC(OCCO)C1OCC(OCCO)C1OCCO (centres unmarked) [Tween 80],tend to group with the sensitizers
8,Oc1cccc(O)c1 [Resorcinol],group together with the control group
9,CCCCCCCC(=O)O [Octanoic acid],tend to group with the sensitizers

# Same assay, conditions: 24 h stimulation, triplicates
row,Structure (SMILES),"PCA grouping, 1137 genes (comparing the different stimulations), FIG. 3D"
1,Sc1nc2ccccc2s1 [2-Mercaptobenzothiazole],"replicates that group together, separate from the negative group"
2,C=CC(=O)OCCO [2-Hydroxyethyl acrylate],"replicates that group together, separate from the negative group"
3,"O=[N+]([O-])c1ccc(Cl)c([N+](=O)[O-])c1 [2,4-Dinitrochlorobenzene]","replicates that group together, separate from the negative group"
4,OC/C=C/c1ccccc1 [Cinnamic alcohol],"replicates that group together, separate from the negative group"
5,"Nc1ccc(N)c([N+](=O)[O-])c1 [2-nitro-1,4-Phenylendiamine]","replicates that group together, separate from the negative group"
6,Oc1cccc(O)c1 [Resorcinol],"replicates that group together, separate from the negative group"
7,Nc1ccc(N)cc1 [p-Phenylendiamine],"replicates that group together, separate from the negative group"

# Test system: not listed separately
# Assay: physchem
# Settings: plasma or biological fluid, kinetic from dmso stock
row,Structure (SMILES),solubility
1,Nc1ccc(N)cc1 [p-Phenylendiamine],566 µM

# Test system: draining lymph nodes of mice
# Assay: not given
# Settings: mouse, in vivo; cited from earlier work
row,Structure (SMILES),Potency
1,CCO/C=C1\N=C(c2ccccc2)OC1=O [Oxazolone],Extreme [15]
2,O=CC=O [Glyoxal],Moderate [27]
3,C=O [Formaldehyde],Strong [15]

# Same assay, conditions: sensitizing potency category based on murine LLNA classification; cited from earlier work
row,Structure (SMILES),Potency
1,CCCCCCC(C=O)=Cc1ccccc1 [Hexylcinnamic aldehyde],Moderate [15]
2,C=CCc1ccc(O)c(OC)c1 [Eugenol],Weak [28]
3,[K+].[K+].[O]=[Cr](=[O])([O-])[O][Cr](=[O])(=[O])[O-] [Potassium dichromate],Extreme [14]
4,CC=Cc1ccc(O)c(OC)c1 [Isoeugenol],Moderate [28]
5,Sc1nc2ccccc2s1 [2-Mercaptobenzothiazole],Moderate [27]
6,CC1(C)S[C@@H]2[C@H](NC(=O)Cc3ccccc3)C(=O)N2[C@H]1C(=O)O [Penicillin G],Weak [28]
7,"O=[N+]([O-])c1ccc(Cl)c([N+](=O)[O-])c1 [2,4-Dinitrochlorobenzene]",Extreme [15]
8,OC/C=C/c1ccccc1 [Cinnamic alcohol],Weak [27]
9,NCCN [Ethylendiamine],Moderate [14]
10,Nc1ccccc1O [2-Aminophenol],Strong [27]
11,Oc1cccc(O)c1 [Resorcinol],Moderate [29]
12,Nc1ccc(N)cc1 [p-Phenylendiamine],Strong [28]

# Test system: human
# Assay: not given
# Settings: in vivo; cited from earlier work
row,Structure (SMILES),HMT
1,O=CC=Cc1ccccc1 [Cinnamaldehyde],+

# Test system: human
# Assay: not given
# Settings: in vivo; cited from earlier work
# Remark: another data set of the same source
row,Structure (SMILES),HPTA
1,O=CC=Cc1ccccc1 [Cinnamaldehyde],+

# Test system: not listed separately
# Assay: Max solubility in medium
# Settings: vehicle DMSO or water
row,Structure (SMILES),Max solubility
1,O=Cc1ccccc1 [Benzaldehyde],250 µM
